Here are results for 28 molecules from patent US6593480B2 (Abbott Laboratories, priority 1999, dated 2003).

A value given as a limit tells only on which side of the number the result lay.

The target in assay [1] is T1, Human glucocorticoid receptors (Homo sapiens, UniProt P04150).
T1 construct: made in house; host or cells: Sf9 insect cells, recombinant baculovirus (BAC-TO-BAC)
T1 sequence (P04150 1-777): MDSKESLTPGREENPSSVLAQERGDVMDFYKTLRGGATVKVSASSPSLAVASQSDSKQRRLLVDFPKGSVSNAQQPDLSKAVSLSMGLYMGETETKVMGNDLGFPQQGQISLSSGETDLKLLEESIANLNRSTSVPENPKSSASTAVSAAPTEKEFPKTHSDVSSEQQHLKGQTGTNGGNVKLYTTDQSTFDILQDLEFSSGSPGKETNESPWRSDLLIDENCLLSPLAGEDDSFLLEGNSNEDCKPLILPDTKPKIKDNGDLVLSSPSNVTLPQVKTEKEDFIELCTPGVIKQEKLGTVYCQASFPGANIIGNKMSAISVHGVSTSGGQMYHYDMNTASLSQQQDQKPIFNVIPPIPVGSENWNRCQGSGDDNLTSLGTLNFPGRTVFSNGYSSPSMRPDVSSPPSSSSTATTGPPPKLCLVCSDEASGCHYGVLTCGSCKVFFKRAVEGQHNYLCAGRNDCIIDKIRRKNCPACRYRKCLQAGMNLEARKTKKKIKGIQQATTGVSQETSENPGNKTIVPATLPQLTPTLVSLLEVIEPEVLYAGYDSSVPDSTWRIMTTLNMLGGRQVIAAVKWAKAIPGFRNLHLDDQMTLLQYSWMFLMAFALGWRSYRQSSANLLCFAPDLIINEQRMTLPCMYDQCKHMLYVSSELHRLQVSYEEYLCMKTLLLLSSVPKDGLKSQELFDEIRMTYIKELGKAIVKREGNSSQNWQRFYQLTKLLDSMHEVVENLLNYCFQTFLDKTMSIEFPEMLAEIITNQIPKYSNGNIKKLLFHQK
Put plainly: Radioligand filter binding assay, displacement of 3(H)-dexamethasone from human glucocorticoid receptor cytosol. The following applies: 1.7 μM test compound, inhibition of 3(H)-dex binding to hGR; for inhibition at 1.7 µM: read-out: GR BINDING (% Inhibition @ 1.7 μM).
Method: Dexamethasone hereafter referred to as dex was purchased from SIGMA. […] Human glucocorticoid receptors were extracted from Sf9 cells infected with a recombinant baculovirus transfer vector containing the cloned hGR genes. […] The recombinant baculovi, uses expressing hGR were amplified and used to infect Sf9 cells. Infected cells were harvested 48 hrs post infection. […] The concentration of hGR in the extract was measured as specific ^3(H)-dex binding with the G25-assay as described in J. Steroid Biochem. Molec. […] The extract was aliquoted and stored at −70° C.
The filter binding assay: Dilution series of the test compounds and dex as reference were made from 10 mM (1 mM dex) stock solutions in DMSO. 10 μl of the dilutions was added in duplicates to the wells. The cell extracts were diluted 10 fold in EPMo +MTG buffer (1 mM EDTA, HPO4 20 mM (pH8), 6 mM MTG). […] 110 μl of the diluted ^3(H)-dex were added to the wells. The final concentration of hGR in the experiment was estimated to 1 nM. All preparations were made in ambient temperature (20-25° C.) on ice and with +4° C. temperated buffers. The plates were incubated over night at +4° C. (15-20hrs).
The incubation was stopped by filtration through GF/B filter on the Tomtec Cellharvester. The filtration on the Tomtec Cellharvester was programmed as follows: 1) Preparation before filtration with EP buffer (1 mM EDTA 20 mM HPO4 (pH8)) 2×(Wash/Asp 0.6 sec., Asp 0.5 sec.); 2) Prewet of GF/B filter with EP+PEI buffer (EP buffer, 0.3% Polyesthylenimine) (Asp 0.8 sec.). 3) Filtration/harvesting of the 96-well incubation plate 3×(Wash/Asp 0.6 sec., Asp 0.5 sec.). The GF/B filter was dried for at least 1 hr at 65° C. A MeltiLex scintillation wax was melted onto the filter with the Microsealer. The filter was placed in a samplebag, which was thereafter trimmed with scissors to fit the filter cassette. The cassette were placed in the Microbeta and measured for 1 min/position, returning ccpm (conrected counts per minute).
The Microbeta-instrument generates the mean cpm (counts per minute) value/minute and corrects for individual variations between the detectors thus generating corrected cpm values.

The target of assay [2] is T2, progesterone receptor (PR) (Homo sapiens, UniProt P06401).
T2 sequence (P06401 1-933): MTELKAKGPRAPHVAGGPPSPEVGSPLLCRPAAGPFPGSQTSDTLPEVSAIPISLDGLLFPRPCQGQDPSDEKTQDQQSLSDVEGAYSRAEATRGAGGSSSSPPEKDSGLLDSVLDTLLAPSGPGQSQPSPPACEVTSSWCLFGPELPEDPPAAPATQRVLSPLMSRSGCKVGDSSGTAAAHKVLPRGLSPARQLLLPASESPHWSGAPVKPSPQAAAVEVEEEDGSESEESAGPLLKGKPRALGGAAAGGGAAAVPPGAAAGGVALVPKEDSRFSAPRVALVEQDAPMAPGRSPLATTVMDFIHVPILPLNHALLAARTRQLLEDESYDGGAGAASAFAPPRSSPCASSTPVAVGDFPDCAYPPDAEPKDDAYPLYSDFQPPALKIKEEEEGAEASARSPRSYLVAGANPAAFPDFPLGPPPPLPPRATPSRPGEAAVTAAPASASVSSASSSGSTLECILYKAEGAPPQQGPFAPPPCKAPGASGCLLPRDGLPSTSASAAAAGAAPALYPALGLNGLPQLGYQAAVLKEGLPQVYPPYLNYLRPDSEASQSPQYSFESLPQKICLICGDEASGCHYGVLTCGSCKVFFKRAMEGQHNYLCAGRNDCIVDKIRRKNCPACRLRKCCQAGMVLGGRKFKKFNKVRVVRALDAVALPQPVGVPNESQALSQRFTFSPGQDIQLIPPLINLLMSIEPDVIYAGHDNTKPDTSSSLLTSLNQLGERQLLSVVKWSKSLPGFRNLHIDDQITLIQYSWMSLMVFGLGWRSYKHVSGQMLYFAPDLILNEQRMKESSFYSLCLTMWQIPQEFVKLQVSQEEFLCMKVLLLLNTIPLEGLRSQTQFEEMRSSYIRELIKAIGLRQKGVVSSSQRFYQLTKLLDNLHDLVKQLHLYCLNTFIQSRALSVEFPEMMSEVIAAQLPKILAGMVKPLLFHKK
Put plainly: Radioligand binding assay with progesterone receptor cytosol (similar protocol). From the text:
Methods for Radioligand Binding Studies with Human Glucocorticoid and Progesterone Receptor Cytosol
A similar protocol was employed to measure affinity of the compounds of the present invention for progesterone receptor (PR).

Take “(1-(2-propynyl)oxy-6-phenyl-6H-dibenzo(b,d)pyran-8-yl)methanesulfonamide [Example 45]”: in assay [1], the “GR BINDING (% Inhibition @ 1.7 μM)” value came out at 91.2%. The half-maximal inhibitory concentration (IC50) (commonly the concentration at which inhibition is half-maximal) in assay [2] amounted to 2160 nM.

For “(1-methoxy-6-(3-fluorophenyl)-6H-dibenzo(b,d)pyran-8-yl)methanesulfonamide [Example 77]”, the “GR BINDING (% Inhibition @ 1.7 μM)” value in assay [1] turned out to be 90.4%. In assay [2], the half-maximal inhibitory concentration (IC50) worked out at 480 nM.

“(1-methoxy-6-(2-bromoprop-2-en-1-yl)-6H-dibenzo(b,d)pyran-8-yl)methanesulfonamide [Example 71]”: in assay [1], the “GR BINDING (% Inhibition @ 1.7 μM)” value came to 89.5%. Further, the IC50 in assay [2] came to 340 nM.

As to `COc1cccc2c1-c1ccc(NS(C)(=O)=O)cc1C(c1cccc(Oc3ccccc3)c1)O2` (stereo not drawn) [Example 139, N-[1-methoxy-6-(3-phenoxyphenyl)-6H-benzo[c]chromen-8-yl]methanesulfonamide], the inhibition (as a rule, how much of the control response was suppressed) at 1.7 µM in assay [1] was 90.6%. The molecule also showed an IC50 in assay [2] above 1000 nM.

Turning to `CS(=O)(=O)Nc1ccc2c(c1)C(c1ccccc1)Oc1cccc(OC(F)F)c1-2` (stereo not drawn) [Example 25, N-(1-difluoromethoxy-6-phenyl-6H-dibenzo[b,d]pyran-8-yl)methanesulfonamide], in assay [1], the inhibition at 1.7 µM worked out at 92.7%. The molecule also yielded an IC50 in assay [2] of 370 nM.

For the molecule “(1-methoxy-6-(5-bromothien-2-yl)-6H-dibenzo(b,d)pyran-8-yl)methanesulfonamide [Example 62]”, in assay [1], the “GR BINDING (% Inhibition @ 1.7 μM)” value came out at 94.5%. For the same molecule, the IC50 in assay [2] worked out at 172 nM. On to `COc1cccc2c1-c1ccc(NS(C)(=O)=O)cc1C(c1ccc(C#N)cc1)O2` (stereo not drawn) [Example 47], for which, in assay [1], the inhibition at 1.7 µM was 94.5%. In assay [2], this molecule came in with an IC50 of 3480 nM.

Turning to “(1-methoxy-4-methyl-6-phenyl-6H-dibenzo(b,d)pyran-8-yl)methanesulfonamide [Example 68]”, the “GR BINDING (% Inhibition @ 1.7 μM)” value in assay [1] worked out at 88.1%. The molecule further displayed an IC50 in assay [2] above 10000 nM. Consider “(1-methoxy-6-(3-carboethoxyphenyl)-6H-dibenzo(b,d)pyran-8-yl)methanesulfonamide [Example 51]”, for which the “GR BINDING (% Inhibition @ 1.7 μM)” value in assay [1] is on record as 94.0%. Further, the concentration for half-maximal inhibition (IC50) in assay [2] is above 10000 nM. As to “(1-methoxy-6-(3-methoxyphenyl)-6H-dibenzo(b,d)pyran-8-yl)methanesulfonamide [Example 59]”, in assay [1], the “GR BINDING (% Inhibition @ 1.7 μM)” value came out at 94.7%. The concentration for half-maximal inhibition (IC50) in assay [2] was determined as 2110 nM.

Regarding `COCCCc1ccc(C2Oc3cccc(OC)c3-c3ccc(NS(C)(=O)=O)cc32)s1` (stereo not drawn) [Example 138, N-{1-methoxy-6-[5-(3-methoxypropyl)-2-thienyl]-6H-benzo[c]chromen-8-yl}methanesulfonamide], in assay [1], the inhibition at 1.7 µM came to 92.5%. In assay [2], this molecule had a half-inhibitory concentration (IC50) of 280 nM. As for “(1-methoxy-6-cyclohexyl-6H-dibenzo(b,d)pyran-8-yl)methanesulfonamide [Example 55]”, the “GR BINDING (% Inhibition @ 1.7 μM)” value in assay [1] is 93.4%. In addition, the IC50 in assay [2] was 1000 nM. In the case of “(1-methoxy-6-(inden-3-yl)-6H-dibenzo(b,d)pyran-8-yl)methanesulfonamide [Example 74]”, in assay [1], the “GR BINDING (% Inhibition @ 1.7 μM)” value came to 86.7%. The IC50 in assay [2] came out at 970 nM. Regarding “(1-difluoromethoxy-6-(4-(N-allyl-N-methylamino)phenyl)-6H-dibenzo(b,d)pyran-8-yl)-methanesulfonamide [Example 30]”, in assay [1], the “GR BINDING (% Inhibition @ 1.7 μM)” value is listed as 85.6%. Further, the IC50 in assay [2] stood at 1280 nM. Consider `COc1cccc2c1-c1ccc(NS(C)(=O)=O)cc1C(c1cccc(C)c1)O2` (stereo not drawn) [Example 86, N-[1-methoxy-6-(3-methylphenyl)-6H-benzo[c]chromen-8-yl]methanesulfonamide], for which, in assay [1], the inhibition at 1.7 µM came out at 90.4%. This molecule also had an IC50 in assay [2] of 77 nM. Regarding `COc1cccc2c1-c1ccc(NS(C)(=O)=O)c(Br)c1C(c1ccccc1)O2` (stereo not drawn) [Example 2], in assay [1], the inhibition at 1.7 µM came out at 67.2%. The molecule further came in with a 50% inhibitory concentration (IC50) in assay [2] above 10000 nM.

On to “(1-methoxy-6-(3-cyanophenyl)-6H-dibenzo(b,d)pyran-8-yl)methanesulfonamide [Example 50]”, for which the “GR BINDING (% Inhibition @ 1.7 μM)” value in assay [1] is reported as 93.7%. In assay [2], this molecule came in with an IC50 of 1050 nM. Turning to “(1-methoxy-6-(4-methylphenyl)-6H-dibenzo(b,d)pyran-8-yl)methanesulfonamide [Example 76]”, the “GR BINDING (% Inhibition @ 1.7 μM)” value in assay [1] is on record as 89.7%. The molecule also came in with an IC50 in assay [2] of 670 nM. With “(1-cyano-6-phenyl-6H-dibenzo(b,d)pyran-8-yl)methanesulfonamide [Example 43]”, the “GR BINDING (% Inhibition @ 1.7 μM)” value in assay [1] turned out to be 90.6%. Further, in assay [2], the IC50 was determined as 730 nM. Take `C=CCOc1cccc(C2Oc3cccc(OC)c3-c3ccc(NS(C)(=O)=O)cc32)c1` (stereo not drawn) [Example 33, (1-methoxy-6-(3-allyloxy)phenyl-6H-dibenzo(b,d)pyran-8-yl)-methanesulfonamide]: the inhibition at 1.7 µM in assay [1] was found to be 87.5%. Besides, the half-maximal inhibitory concentration (IC50) in assay [2] turned out to be 5490 nM. `CCOC(=O)CCCc1cccc(C2Oc3cccc(OC)c3-c3ccc(NS(C)(=O)=O)cc32)c1` (stereo not drawn) [Example 150, ethyl 4-(3-{1-methoxy-8-[(methylsulfonyl)amino]-6H-benzo[c]chromen-6-yl}phenyl)butanoate]: in assay [1], the inhibition at 1.7 µM came out at 90.8%. Turning to `C=CCCCc1cccc(C2Oc3cccc(OC)c3-c3ccc(NS(C)(=O)=O)cc32)c1` (stereo not drawn) [Example 111, N-{1-nethoxy-6-[3-(4-pentenyl)phenyl]-6H-benzo[c]chromen-8-yl}methanesulfonamide], the “GR BINDING (% Inhibition @ 1.7 μM)” value in assay [1] came out at 87.4%. `COCCOCOc1ccc2c(c1OC)-c1ccc(NS(C)(=O)=O)cc1C(c1ccccc1)O2` (stereo not drawn) [Example 106, N-{1-methoxy-2-[(2-methoxyethoxy)methoxy]-6-phenyl-6H-benzo[c]chromen-8-yl}methanesulfonamide]: the inhibition at 1.7 µM in assay [1] was 42.7%. For the molecule `COc1cccc2c1-c1ccc(NS(C)(=O)=O)cc1C(c1cccc(Oc3ccc(C(C)=O)cc3)c1)O2` (stereo not drawn) [Example 140, N-{6-[3-(4-acetylphenoxy)phenyl]-1-methoxy-6H-benzo[c]chromen-8-yl}methanesulfonamide], in assay [1], the inhibition at 1.7 µM stood at 84.1%. Consider `COc1cccc2c1-c1ccc(NS(C)(=O)=O)cc1C(c1cccc(CCCC(=O)O)c1)O2` (stereo not drawn) [Example 151, 4-(3-{1-methoxy-8-[(methylsulfonyl)amino]-6H-benzo[c]chromen-6-yl}phenyl)butanoic acid], for which the inhibition at 1.7 µM in assay [1] came to 69.5%. For `COc1cc(C)cc2c1-c1ccc(NS(C)(=O)=O)cc1C(c1ccccc1)O2` (stereo not drawn) [Example 67, (1-methoxy-3-methyl-6-phenyl-6H-dibenzo(b,d)pyran-8-yl)methanesulfonamide], the inhibition at 1.7 µM in assay [1] came out at 49.3%. For `C[Si](C)(C)CCCc1cccc(C2Oc3cccc(OC(F)F)c3-c3ccc(NS(C)(=O)=O)cc32)c1` (stereo not drawn) [Example 134, N-(1-(difluoromethoxy)-6-{3-[3-(trimethylsilyl)propyl]phenyl}-6H-benzo[c]chromen-8-yl)methanesulfonamide], the inhibition at 1.7 µM in assay [1] was 88.8%. On to `COc1cccc2c1-c1ccc(NS(C)(=O)=O)cc1C(c1cccc(N(C)S(=O)(=O)c3ccc(-c4ccon4)s3)c1)O2` (stereo not drawn) [Example 149, 5-(3-isoxazolyl)-N-(3-{1-methoxy-8-[(methylsulfonyl)amino]-6H-benzo[c]chromen-6-yl}phenyl)-N-methyl-2-thiophenesulfonamide], for which the inhibition at 1.7 µM in assay [1] turned out to be 69%.
